Literature values as cited in patent US20130331400A1, “METHOD FOR PRODUCING INDIGO-PLANT LEAF EXTRACT” (SUNSTAR INC.,, priority 2011, published 2013).

Columns and labels:
[1] = general statement in background art
[2] = test system: fungi of the genus Malassezia; conditions: reported in PTL 1
[3] = test system: type IV allergic reactions; conditions: reported in PTL 2

For `O=C1c2ccccc2-n2c1nc1ccccc1c2=O` [tryptanthrin], the “Light stability of tryptanthrin (in words)” value [1] is given as “poor light stability”, the “Antibacterial action against fungi of the genus Malassezia (in words)” value [2] is given as “has an antibacterial action against fungi of the genus Malassezia” and the “Effect on type IV allergic reactions (in words)” value [3] is given as “effect of suppressing type IV allergic reactions”.
